Test [1] deals with Syrian golden hamster. As to the kind of experiment: Antidyslipidemic activity against high fructose high fat diet fed syrian golden hamster assessed as reduction in serum cholesterol at 30 mg/kg, po for 7 days relative to untreated control. The class given is functional, Mesocricetus auratus. Also on record: scale not given: the % may be the effect or the level left.
Test [2] deals with Syrian golden hamster. As to the kind of experiment: Antidyslipidemic activity against high fructose high fat diet fed syrian golden hamster assessed as reduction in serum triglyceride at 30 mg/kg, po for 7 days relative to untreated control. Also noted: scale not given: the % may be the effect or the level left. The class given is functional, Mesocricetus auratus.
The subject of test [3] is Syrian golden hamster. As to the kind of experiment: Antidyslipidemic activity against high fructose high fat diet fed syrian golden hamster assessed as change in serum HDL-cholesterol at 30 mg/kg, po for 7 days relative to untreated control. In kind it is functional, Mesocricetus auratus.
The test system of test [4] is Syrian golden hamster. As to the kind of experiment: Antidyslipidemic activity against high fructose high fat diet fed syrian golden hamster assessed as reduction in serum LDL-cholesterol at 30 mg/kg, po for 7 days relative to untreated control. Also on record: scale not given: the % may be the effect or the level left. The class given is functional, Mesocricetus auratus.

Test [5] has as its system Syrian golden hamster. As to the kind of experiment: Antidiabetic activity against high fructose high fat diet fed syrian golden hamster assessed as change in fasting blood glucose level at 30 mg/kg, po for 7 days relative to untreated control. In kind it is functional, Mesocricetus auratus.
Test [6] relates to Syrian golden hamster. As to the kind of experiment: Antidiabetic activity against high fructose high fat diet fed syrian golden hamster assessed as change in serum insulin level at 30 mg/kg, po for 7 days by ELISA relative to untreated control. In kind it is functional, Mesocricetus auratus. In general terms: In an ELISA, binding on a coated surface is turned into a signal by an enzyme label.

For test [7], the system named is Syrian golden hamster. As to the kind of experiment: Antidyslipidemic activity against high fructose high fat diet fed syrian golden hamster assessed as reduction in glycerol level at 30 mg/kg, po for 7 days relative to untreated control. In kind it is functional, Mesocricetus auratus. Also noted: scale not given: the % may be the effect or the level left.
Test [8] concerns Syrian golden hamster. As to the kind of experiment: Antidyslipidemic activity against high fructose high fat diet fed syrian golden hamster assessed as reduction in NEFA level at 30 mg/kg, po for 7 days relative to untreated control. In kind it is functional, Mesocricetus auratus. Also on record: scale not given: the % may be the effect or the level left.
The subject of test [9] is Syrian golden hamster. As to the kind of experiment: Antidyslipidemic activity against high fructose high fat diet fed syrian golden hamster assessed as increase in lipoprotein lipase activity at 30 mg/kg, po for 7 days relative to untreated control. The class given is functional, Mesocricetus auratus.
Test [10] has as its system Syrian golden hamster. As to the kind of experiment: Antidyslipidemic activity against high fructose high fat diet fed syrian golden hamster assessed as reduction in serum cholesterol at 10 mg/kg, po for 7 days relative to untreated control. In kind it is functional, Mesocricetus auratus. Also on record: scale not given: the % may be the effect or the level left.
In test [11] the test system is Syrian golden hamster. As to the kind of experiment: Antidyslipidemic activity against high fructose high fat diet fed syrian golden hamster assessed as reduction in serum triglyceride at 10 mg/kg, po for 7 days relative to untreated control. The class given is functional, Mesocricetus auratus. Also noted: scale not given: the % may be the effect or the level left.

The test system of test [12] is Syrian golden hamster. As to the kind of experiment: Antidyslipidemic activity against high fructose high fat diet fed syrian golden hamster assessed as change in serum HDL-cholesterol at 10 mg/kg, po for 7 days relative to untreated control. In kind it is functional, Mesocricetus auratus.
Test [13] deals with Syrian golden hamster. As to the kind of experiment: Antidyslipidemic activity against high fructose high fat diet fed syrian golden hamster assessed as reduction in serum LDL-cholesterol at 10 mg/kg, po for 7 days relative to untreated control. The class given is functional, Mesocricetus auratus. Also noted: scale not given: the % may be the effect or the level left.
For test [14], the system named is Syrian golden hamster. As to the kind of experiment: Antidyslipidemic activity against high fructose high fat diet fed syrian golden hamster assessed as reduction in glycerol level at 10 mg/kg, po for 7 days relative to untreated control. In kind it is functional, Mesocricetus auratus. Also noted: scale not given: the % may be the effect or the level left.
For test [15], the system named is Syrian golden hamster. As to the kind of experiment: Antidyslipidemic activity against high fructose high fat diet fed syrian golden hamster assessed as reduction in NEFA level at 10 mg/kg, po for 7 days relative to untreated control. Also on record: scale not given: the % may be the effect or the level left. In kind it is functional, Mesocricetus auratus.
The subject of test [16] is Syrian golden hamster. As to the kind of experiment: Antidyslipidemic activity against high fructose high fat diet fed syrian golden hamster assessed as increase in lipoprotein lipase activity at 10 mg/kg, po for 7 days relative to untreated control. The class given is functional, Mesocricetus auratus.
The subject of test [17] is Syrian golden hamster. As to the kind of experiment: Antidyslipidemic activity against high fructose high fat diet fed po dosed syrian golden hamster assessed as reduction in serum cholesterol administered for 7 days relative to untreated control. The conditions noted are these: Mesocricetus auratus. The class given is functional, organism-based.
The subject of test [18] is Syrian golden hamster. As to the kind of experiment: Antidyslipidemic activity against high fructose high fat diet fed po dosed syrian golden hamster assessed as reduction in serum triglyceride administered for 7 days relative to untreated control. The conditions noted are these: Mesocricetus auratus. The class given is functional, organism-based.
For test [19], the system named is Syrian golden hamster. As to the kind of experiment: Antidyslipidemic activity against high fructose high fat diet fed po dosed syrian golden hamster assessed as increase in serum HDL-cholesterol administered for 7 days relative to untreated control. In kind it is functional, organism-based. The conditions noted are these: Mesocricetus auratus.
Test [20] relates to Syrian golden hamster. As to the kind of experiment: Antidyslipidemic activity against high fructose high fat diet fed po dosed syrian golden hamster assessed as reduction in serum LDL-cholesterol administered for 7 days relative to untreated control. The class given is functional, organism-based. The conditions noted are these: Mesocricetus auratus.
Test [21] deals with Syrian golden hamster. As to the kind of experiment: Antidyslipidemic activity against high fructose high fat diet fed po dosed syrian golden hamster assessed as reduction in glycerol level administered for 7 days relative to untreated control. The class given is functional, organism-based. The conditions noted are these: Mesocricetus auratus.
Test [22] has as its system Syrian golden hamster. As to the kind of experiment: Antidyslipidemic activity against high fructose high fat diet fed po dosed syrian golden hamster assessed as reduction in NEFA level administered for 7 days relative to untreated control. In kind it is functional, organism-based. The conditions noted are these: Mesocricetus auratus.
The test system of test [23] is Syrian golden hamster. As to the kind of experiment: Antidyslipidemic activity against high fructose high fat diet fed po dosed syrian golden hamster assessed as increase in lipoprotein lipase activity administered for 7 days relative to untreated control. In kind it is functional, organism-based. The settings on record: Mesocricetus auratus.
Test [24] deals with Syrian golden hamster. As to the kind of experiment: Antidyslipidemic activity against high fructose high fat diet fed syrian golden hamster assessed as reduction in body weight at 30 mg/kg, po for 7 days relative to untreated control. The class given is functional, Mesocricetus auratus. Also on record: scale not given: the % may be the effect or the level left.

On to `CCOC(=O)C(C)(C)Oc1ccc(C(=O)/C=C/c2ccc(OC)cc2)cc1`, for which the Activity with Syrian golden hamster [1] is on record as 9.3%; in the test with Syrian golden hamster [2] it was 31.2%; in the test on Syrian golden hamster [3], -9.9%; in the test with Syrian golden hamster [4], 27.4%; in the test with Syrian golden hamster [5] it was -16.9%; with Syrian golden hamster [6], -5.87%.
`CCOC(=O)C(C)(C)Oc1ccc(C(=O)/C=C/c2cc(Cl)cc(Cl)c2)cc1`: the Activity is on record as 16.9% in the test on Syrian golden hamster [1]; 17.4% in the test on Syrian golden hamster [2]; 10.1% in the test with Syrian golden hamster [3]; 16.8% in the test with Syrian golden hamster [4]; -8.4% with Syrian golden hamster [5]; -12.1% in the test on Syrian golden hamster [6].
`CCOC(=O)C(C)(C)Oc1ccc(C(=O)/C=C/c2ccc(C)cc2)cc1`: the Activity in the test with Syrian golden hamster [1] was 23.4%; with Syrian golden hamster [2] it was 22.7%; in the test on Syrian golden hamster [3], 2.52%; in the test on Syrian golden hamster [4], 19.8%; with Syrian golden hamster [5] it was -12.9%; with Syrian golden hamster [6], -10.8%.
With `CCOC(=O)C(C)(C)Oc1cccc(/C=C/C(=O)c2ccccc2)c1`, the Activity was 11.5% in the test with Syrian golden hamster [1]; 18.5% with Syrian golden hamster [2]; 2.1% in the test with Syrian golden hamster [3]; 15.3% in the test with Syrian golden hamster [4]; -10.5% in the test on Syrian golden hamster [5]; -5.89% in the test on Syrian golden hamster [6].
Take `CCOC(=O)C(C)(C)Oc1ccc(C(=O)/C=C/c2ccc([N+](=O)[O-])cc2)cc1`: the Activity in the test on Syrian golden hamster [1] amounted to 25%; in the test with Syrian golden hamster [2], 30.4%; in the test with Syrian golden hamster [3], 5.88%; in the test on Syrian golden hamster [4], 28.5%; with Syrian golden hamster [7] it was 17.2%; in the test on Syrian golden hamster [8] it was 15.9%. In addition, the Activity is 21.7% in the test with Syrian golden hamster [9]; 15.6% in the test on Syrian golden hamster [10]; 20% in the test with Syrian golden hamster [11]; -3.36% with Syrian golden hamster [12]; 16.9% in the test on Syrian golden hamster [13]; 7.93% with Syrian golden hamster [14]. Moreover, the Activity with Syrian golden hamster [15] was 2.45%; in the test with Syrian golden hamster [16], 10.8%; with Syrian golden hamster [17], “Dose-dependent effect”; in the test on Syrian golden hamster [18], “Dose-dependent effect”; in the test on Syrian golden hamster [19], “Dose-dependent effect”; in the test with Syrian golden hamster [20], “Dose-dependent effect”. Besides, the Activity result was “Dose-dependent effect” in the test on Syrian golden hamster [21]; “Dose-dependent effect” with Syrian golden hamster [22]; “Dose-dependent effect” in the test with Syrian golden hamster [23]; -7.49% in the test on Syrian golden hamster [5]; -24.3% with Syrian golden hamster [6]; 6.85% in the test on Syrian golden hamster [24].
In the case of `CCOC(=O)C(C)(C)Oc1ccc(C(=O)/C=C/c2ccc3c(c2)OCO3)cc1`, the Activity in the test on Syrian golden hamster [1] was found to be 26.8%; in the test on Syrian golden hamster [2], 41.6%; in the test with Syrian golden hamster [3], 9.8%; in the test on Syrian golden hamster [4], 41.7%; in the test on Syrian golden hamster [7], 24.9%; in the test on Syrian golden hamster [8], 20.5%. For the same molecule, the Activity came out at 30.2% with Syrian golden hamster [9]; 18.6% with Syrian golden hamster [10]; 20% in the test with Syrian golden hamster [11]; 3.78% with Syrian golden hamster [12]; 25.2% with Syrian golden hamster [13]; 14.9% in the test with Syrian golden hamster [14]. The Activity in the test with Syrian golden hamster [15] is 6.73%; in the test on Syrian golden hamster [16], 14.5%; with Syrian golden hamster [17], “Dose-dependent effect”; in the test on Syrian golden hamster [18], “Dose-dependent effect”; in the test with Syrian golden hamster [19], “Dose-dependent effect”; in the test with Syrian golden hamster [20], “Dose-dependent effect”. Besides, the Activity entry in the test with Syrian golden hamster [21] is “Dose-dependent effect”; with Syrian golden hamster [22] it was “Dose-dependent effect”; with Syrian golden hamster [23] it was “Dose-dependent effect”; in the test with Syrian golden hamster [5], -14.8%; in the test on Syrian golden hamster [6] it was -22.2%; in the test on Syrian golden hamster [24], 6.25%.
For `CCOC(=O)C(C)(C)Oc1ccc(C(=O)/C=C/c2ccc(Cl)cc2)cc1`, the Activity is 23.7% with Syrian golden hamster [1]; 22.7% in the test with Syrian golden hamster [2]; -2.52% with Syrian golden hamster [3]; 20.5% in the test on Syrian golden hamster [4]; 5.4% in the test on Syrian golden hamster [5]; -22.2% in the test with Syrian golden hamster [6].
Regarding `CCOC(=O)C(C)(C)Oc1ccc(/C=C/C(=O)c2ccccc2)cc1`, the Activity in the test on Syrian golden hamster [1] was 17.8%; in the test on Syrian golden hamster [2] it was 25.1%; in the test on Syrian golden hamster [3] it was 10.8%; with Syrian golden hamster [4], 16.8%; with Syrian golden hamster [5], 8.8%; with Syrian golden hamster [6], 6.78%.
In the case of `CC(C)OC(=O)C(C)(C)Oc1ccc(C(=O)c2ccc(Cl)cc2)cc1` [FENOFIBRATE], the Activity with Syrian golden hamster [2] is 28.9%; with Syrian golden hamster [3], 9.8%; in the test with Syrian golden hamster [4], 30.1%; with Syrian golden hamster [7], 22.4%; with Syrian golden hamster [9], 21.1%; in the test with Syrian golden hamster [5], -5.4%. Moreover, the Activity in the test with Syrian golden hamster [6] is recorded as -11.5%.
Take `CCOC(=O)C(C)(C)Oc1ccc(C(=O)/C=C/c2ccccc2Cl)cc1`: the Activity came to 0.48% in the test with Syrian golden hamster [1]; 21.3% in the test on Syrian golden hamster [2]; 15.6% in the test on Syrian golden hamster [3]; 16.4% in the test on Syrian golden hamster [4]; 4.65% with Syrian golden hamster [5]; 2.39% with Syrian golden hamster [6].
Consider `CCOC(=O)C(C)(C)Oc1ccc(C(=O)/C=C/c2ccc(F)cc2)cc1`, for which the Activity was 16.8% with Syrian golden hamster [1]; 22.2% in the test with Syrian golden hamster [2]; 4.8% in the test on Syrian golden hamster [3]; 23.2% in the test on Syrian golden hamster [4]; -18.4% in the test with Syrian golden hamster [5]; -4.9% in the test with Syrian golden hamster [6].
